# Measurements reported in patent US20260091136A1, “USING ENHO GENE THERAPY TO TREAT CARDIOMETABOLIC DISEASE” (University of Pittsburgh-of the Commonwealth System of …, priority 2023, published 2026).
# “Also recorded” adds a separate entry of the source.
# Columns and labels:
# LCAD = test: O-GlcNAc co-immunoprecipitation from heart: LCAD; format: in vivo, C57BL/6J mice; conditions: Adropin-treated HFpEF mice, relative to levels in chow mice / HFpEF
# From the text: (§1) Animal Care and Use. Male C57BL/6J 8-week-old mice were obtained from the Jackson Laboratory and maintained on chow for 4 weeks to acclimate to their new environment. Animals were housed in the University of Pittsburgh animal facility under standard conditions with ad libitum access to water and food and maintained on a constant 12-hour light/dark cycle. At 12 weeks of age, the mice were exposed to normal chow (Chow; 60% carbohydrate, 26% protein, 14% fat), or a combination of high-fat diet (HFD; 20% carbohydrate, 20% protein, 60% fat) plus No-nitro-L-arginine methyl ester (L-NAME: 0.5 g/L) supplemented in their drinking water after adjusting the pH to 7.4 with 1N NaOH to induce HFpEF [10]. For cohort 1, the mice were subject to the HFpEF diet for 15 weeks. For cohort 2, after 8 weeks of diet, mice were randomly assigned to a control or treatment group receiving daily intraperitoneal injections of either vehicle or recombinant adropin at 450 nmol/kg animal weight prepared in PBS with 0.1% BSA for the remaining 5 weeks of the study. L-NAME supplemented drinking water was changed weekly and adropin was made fresh and sterile filtered before each use.
# Co-Immunoprecipitation. […] Images were obtained using LiCor Odyssey CLx System and protein densitometry was measured using the LiCor Image Studio Lite Ver. […]
# HFpEF mice [1] = test: Glucose tolerance testing (IPGTT) in HFpEF mice (Example 1); format: in vivo; conditions: for glucose tolerance: HFpEF mice, four weeks of Adropin treatment
# Procedure: Administration of Recombinant Adropin. Mice received low-fat chow or HFpEF diet for 10 weeks. For the following 4 weeks, the mice were maintained on respective diets and received daily injections of recombinant Adropin. Body weight was measured every day during the four weeks of treatment.
# Glucose tolerance testing. Glucose tolerance was tested (IPGTT), following a 2 g/kg bolus of glucose. Blood was collected at 15 mins, 30 mins, 45 mins, 60 mins, 90 mins, and 120 mins, and measured using a standard glucometer (Bayer Next EZ). Time-courses for blood glucose uptake will be generated and analyzed for significance using standard statistical tests.
# [2] = tested on: hexosamine biosynthesis pathway (HBP); test: Immunoblotting of cardiac proteins (O-GlcNAc, GFAT, OGT, OGA, CD36, PDK4, PLIN5); format: in vivo, C57BL/6J mice; conditions: heart; for CD36 abundance: to levels observed in chow mice; for total cardiac protein O-GlcNAcylation: to levels observed in chow mice (P=0.06 in b192)
# From the text: as §1
# Protein Isolation and Immunoblotting. Heart tissues were rapidly harvested following euthanasia, weighed, RV discarded and LV flash-frozen in liquid nitrogen. For protein isolation, tissues were minced and lysed in CHAPS buffer (1% CHAPS, 150 mM NaCl, 10 mM HEPES, pH 7.4) using a VWR 4-Place Mini Bead Mill, then incubated on ice for ˜2.5 h. Homogenates were spun at 10,000 g at 4° C. for 10 min, and the supernatants collected for immunoblotting. For immunoblotting, protein lysates were quantitated using a BioDrop LITE Analyzer, prepared in LDS sample buffer, separated using Bolt SDS-PAGE 4-12% or 12% Bis-Tris Plus gels, and transferred to nitrocellulose membranes. Membranes were blocked using SuperBlock (PBS) Blocking Buffer and incubated overnight in the following primary antibodies: rabbit PDK4 (PA5-13776); mouse 0-GlcNAc (9875), rabbit GFAT (D12F4), rabbit OGT (D1D8Q), rabbit OGA (E9C5U), rabbit GAPDH (2118S); rabbit CD36 (18836-1-AP), rabbit CPT1b (22170-1-AP), rabbit LCAD (17526-1-AP), and GCN5L1 as previously reported (Scott et al., 2012). Protein loading was confirmed using GAPDH as a loading control. Fluorescent […] or anti-rabbit secondary antibodies (red, 700 nm; green, 800 nm) were used to detect expression levels. Images were obtained using Licor Odyssey CLx System and protein densitometry was measured using the LiCor Image Studio Lite Ver. 5.2 Software.
# HFpEF mice [3] = test: Liver H&E histology, NAFLD/MAFLD activity score (NAS), cohort 2; format: in vivo, C57BL/6J mice; conditions: adropin-treated vs HFpEF mice; non-significant
# From the text: as §1
# Histology. […] Histology sections were visualized with the Evos FL Auto 2 Microscope, observed changes in structure were quantified using ImageJ software and representative images are shown.
# [4] = IPGTT AUC analysis, p-value <0.05
# [5] = Adropin-treated HFpEF mice, listed as adropin
substance,measurement,setting,value
Adropin: recombinant Adropin peptide hormone encoded by the ENHO gene; full-length (SEQ ID NO: 1) or cleaved product of amino acids 34-76 (SEQ ID NO: 2) (CHSRSADVDSLSESSPNSSPGPCPEKAPPPQKPSHEGSYLLQP),LCAD O-GlcNAcylation,LCAD,restored; also recorded: reduced
same,"average blood glucose, IPGTT","HFpEF mice [1]; HFpEF mice that received Adropin, by the 120 minute timepoint",gradually decreased to match control chow mice
same,glucose tolerance,HFpEF mice [1],increase
same,glucose tolerance,HFpEF mice [1]; listed as Recombinant Adropin,significant increase
same,blood glucose AUC of HFpEF mice that received Adropin relative to control chow mice,HFpEF mice [1]; [4],significantly greater
same,blood glucose AUC of HFpEF mice without Adropin relative to HFpEF mice that received Adropin,HFpEF mice [1]; [4],significantly greater
same,PDK4 enzyme expression,[2],no observed changes
same,inhibition of cardiac protein O-GlcNAcylation by mediating expression of OGT and OGA,[2],did not inhibit
same,GFAT expression,[2]; Adropin-treated HFpEF mice,did not reduce
same,CD36 abundance,[2]; Adropin-treated HFpEF mice,restored
same,total cardiac protein O-GlcNAcylation,[2]; Adropin-treated HFpEF mice,restored; also recorded: decrease
same,total cardiac protein O-GlcNAcylation,[2]; [5],restored
same,CD36 abundance,[2]; [5],restored; also recorded: significantly attenuated
same,PLIN5 expression (aberrant fatty acid utilization),[2]; increased in HFpEF vs chow,corrected
same,decrease in liver NAS,HFpEF mice [3],~7%
